Results reported in PubChem BioAssay AID651630 (Sanford-Burnham Center for Chemical Genomics, 2012).
pIC50: −log10 of the molar value. Active and inactive are the calls of the source.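 The calls were made as follows: active = lipid-stain IC50 at or below a set limit, with nuclear-stain toxicity IC50 at least five times higher; inactive = the rest.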

Key:
TAG = assay: triacylglycerol accumulation inhibitor potency, dose response, cell-based, panel, Nile Red and DAPI fluorescence, H9c2 (AID 651630); settings: H9c2 cells, Nile Red TAG fluorescence, oleic acid;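 also: cells exposed to compound overnight before fixation and staining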
DAPI = assay: as above; settings: H9c2 cells, DAPI nuclear fluorescence (cytotoxicity counter-readout), oleic acid

pIC50 (TAG; run 1)	pIC50 (TAG; run 2)	IC50 (TAG; mean of runs)	pIC50 (TAG; mean of runs)	SMILES	IC50 cytotoxicity (DAPI nuclear signal decrease) (DAPI; mean of runs)	IC50 cytotoxicity (DAPI nuclear signal decrease) (DAPI; run 1) [µM]	IC50 cytotoxicity (DAPI nuclear signal decrease) (DAPI; run 2) [µM]
< 4.60	4.74			CC(=O)c1cccc(-c2ccc(CN3C(CC(C)C)C(=O)N(Cc4cn(CC5CCCCC5)nn4)CCS3(=O)=O)cc2)c1 (stereo unspecified)	> 25 µM (inactive)	> 25	> 25
< 4.60	< 4.60	> 25 µM (inactive)		CCC(=O)Nc1nonc1-c1nc2ccccc2n1Cc1cccc2ccccc12	> 25 µM (inactive)	> 25	> 25
< 4.60	< 4.60	> 25 µM (inactive)		C[C@@H]1CN([C@H](C)CO)C(=O)c2c(c3ccccc3n2C)-c2ccccc2CO[C@H]1CN(C)Cc1ccc(Oc2ccccc2)cc1		> 25	20
5.80	5.65		5.72	N#CC(C#N)=c1ccc2c(c1)N1C(c3ccccc3)=CC(c3ccccc3)C3CCCCC31N=2 (stereo unspecified)		> 25	> 25
4.65	< 4.60			CCOc1cc(N2CCOCC2)c(OCC)cc1NC(=O)CC12CC3CC(CC(C3)C1)C2	> 25 µM (inactive)	> 25	> 25
5.43	5.29		5.35	Cc1ccc(CNC(=O)c2ccc(N3CCC4(CC3)CC(c3ccccc3)=NO4)c(NC(=O)c3ccc(Br)cc3)c2)cc1		> 25	> 25
5.43	5.18		5.28	COCCn1cnc2c(c1=O)c1nc3ccccc3nc1n2/N=C/c1ccc(OC)c(OC)c1		23.4	> 25
4.85	4.87		4.86	O=C1COc2ccc(C(=O)CSc3nc4ccccc4c(=O)n3-c3ccc(Cl)c(Cl)c3)cc2N1	18.1 µM (inactive)	18.4	17.8
5.54	5.37		5.45	Nc1c(Cl)cc(-c2csc(N3CCCC3c3nc4cc(Cl)c(N5CCCCC5)cc4n3CCCO)n2)cc1Cl (stereo unspecified)	15.6 µM (inactive)	14.5	16.6
5.12	4.99		5.05	COc1ccc2sc(-c3ccc(N(C)C)cc3)c(C#CCCO)c2c1	> 25 µM (inactive)	> 25	> 25
< 4.60	< 4.60	> 25 µM (inactive)		O=C(CSc1cccc2cccnc12)Nc1ccc(S(=O)(=O)N2CCOCC2)cc1	> 25 µM (inactive)	> 25	> 25
< 4.60	< 4.60	> 25 µM (inactive)		Cc1ccc(Cn2cc(/C=N/NC(=O)Cc3nnc(NC(=O)c4ccc(C)cc4)s3)c3ccccc32)cc1	16 µM (inactive)	13.1	19
5.11	5.28		5.19	COc1cc(NC(=O)Nc2nc(C(N)Cc3ccc(C(F)(F)F)cc3)cs2)cc(OC)c1OC (stereo unspecified)		24.9	> 25
4.71	4.75	18.7 µM (inactive)		Cc1ccc2c(c1)N(C(=O)CCC(=O)NCCCN1CCC(Cc3ccccc3)CC1)CCO2	22.3 µM (inactive)	20.2	24.3

Further lines, the compound ahead of its results:

SMILES	pIC50 (TAG; run 1)	pIC50 (TAG; run 2)	IC50 (TAG; mean of runs)	pIC50 (TAG; mean of runs)	IC50 cytotoxicity (DAPI nuclear signal decrease) (DAPI; mean of runs)	IC50 cytotoxicity (DAPI nuclear signal decrease) (DAPI; run 1) [µM]	IC50 cytotoxicity (DAPI nuclear signal decrease) (DAPI; run 2) [µM]
CC(C)(C)NC(=O)C(c1ccc(-c2ccccc2)cc1)N(C[C@H]1CC[C@@H]([C@@H]2CC[C@H](CO)O2)O1)C(=O)c1ccc2ccccc2c1 (stereo partly specified)	5.30	5.21		5.25	> 25 µM (inactive)	> 25	> 25
Cc1cccc(N2CCN(C(=O)c3c(-c4ccccc4Cl)noc3C)CC2)c1C	4.78	4.80	16.3 µM (inactive)		> 25 µM (inactive)	> 25	> 25
COc1ccc(-c2cc(NC=O)c3ncc(-c4ccc(OC)c(OC)c4)n3c2)cc1	4.90	4.86		4.88		> 25	5.58
Cc1nn2c(NCc3ccccn3)c3c(nc2c1-c1ccccc1)CCC3	< 4.60	< 4.60	> 25 µM (inactive)		> 25 µM (inactive)	> 25	> 25
Cc1ccc(-c2nc(NC(=O)c3cc(C(C)(C)C)nn3C)sc2C)cc1Cl	5.20	5.32		5.25	21.1 µM (inactive)	20.2	22
O=C1CCCC2=C1C1(CCCC1)N=C(Nc1nc3cc(-c4ccccc4)ccc3o1)N2	4.81	4.71	17.5 µM (inactive)		> 25 µM (inactive)	> 25	> 25
Cc1ccc2c(=O)n3c(nc2c1)C(Cc1ccc(O)cc1)NC(=O)c1cc2ccccc2cc1-3 (stereo unspecified)	< 4.60	< 4.60	> 25 µM (inactive)		> 25 µM (inactive)	> 25	> 25
CCN1C(=O)[C@H]2[C@@H](c3ccc(-c4cccc(Cl)c4)cc3)N[C@@](Cc3ccccc3)(C(=O)OC)[C@H]2C1=O	4.80	4.62	20 µM (inactive)		> 25 µM (inactive)	> 25	> 25
COC(=O)C1=C(c2cc3ccccc3s2)C[C@@H]2CC[C@H]1N2C(=O)N1CCOCC1	< 4.60	< 4.60	> 25 µM (inactive)		> 25 µM (inactive)	> 25	> 25
CCN(CC)CCC(c1ccc2c(c1)OCO2)c1c(OC)cc(OC)c2c(-c3ccccc3)cc(=O)oc12 (stereo unspecified)	< 4.60	< 4.60	> 25 µM (inactive)		> 25 µM (inactive)	> 25	> 25
